Data reported in ChEMBL document CHEMBL3885861, “Open TG-GATES”.

Species: Rattus norvegicus
Experiment: Open TG-GATES - Regimen: Single
Assay type: toxicity, organism-based, Sprague-Dawley
Parameters: regimen Single, gender Male, age 6 weeks
Conditions: in vivo, po, 24 h, route gavage; for Bas / Eos / Hb / Ht / Lym / MCH / MCHC / MCV / Mono / Neu / Plat / RBC / Ret / WBC: tissue Blood; for KIDNEY_L / KIDNEY_R / KIDNEY_TOTAL: tissue Kidney; for LIVER: tissue Liver; for A/G / ALP / ALT / AST / BUN / CRE / Ca / Cl / DBIL / GLC / IP / K / LDH / Na / PL / RALB / TBIL / TC / TG / TP / gamma-GTP: tissue Plasma

For O=NN1CCOCC1 [N-NITROSOMORPHOLINE], the TERMINAL_BW (0 mg/kg, dose level Control) was 228.1 g, the Bas (0 mg/kg, dose level Control) was 0% and the Eos (0 mg/kg, dose level Control) was 0.6%. The Hb (0 mg/kg, dose level Control) was 12.5 g/dL, the Ht (0 mg/kg, dose level Control) was 38.4% and the Lym (0 mg/kg, dose level Control) was 80%. The MCH (0 mg/kg, dose level Control) was 20.2 pg, the MCHC (0 mg/kg, dose level Control) was 32.5% and the MCV (0 mg/kg, dose level Control) was 62.2 fL. It also gave a Mono (0 mg/kg, dose level Control) of 2.2%, a Neu (0 mg/kg, dose level Control) of 16.4% and a Plat (0 mg/kg, dose level Control) of 122.3 x10_4/uL. For the same compound, the RBC (0 mg/kg, dose level Control) was 619.4 x10_4/ul, the Ret (0 mg/kg, dose level Control) was 8% and the WBC (0 mg/kg, dose level Control) was 73.5 x10_2/uL. For the same compound, the KIDNEY_L (0 mg/kg, dose level Control) was 1 g, the KIDNEY_R (0 mg/kg, dose level Control) was 1 g and the KIDNEY_TOTAL (0 mg/kg, dose level Control) was 2.1 g. It also gave an LIVER (0 mg/kg, dose level Control) of 10.8 g, an A/G (0 mg/kg, dose level Control) of 1 and an ALP (0 mg/kg, dose level Control) of 1437.2 IU/L. It also gave an ALT (0 mg/kg, dose level Control) of 38.6 IU/L, an AST (0 mg/kg, dose level Control) of 65.2 IU/L and a BUN (0 mg/kg, dose level Control) of 15.9 mg/dL. It also gave a CRE (0 mg/kg, dose level Control) of 0.2 mg/dL, a Ca (0 mg/kg, dose level Control) of 10.8 mg/dL and a Cl (0 mg/kg, dose level Control) of 103.3 meq/L. The DBIL (0 mg/kg, dose level Control) was 0 mg/dL, the GLC (0 mg/kg, dose level Control) was 188 mg/dL and the IP (0 mg/kg, dose level Control) was 6.6 mg/dL. The K (0 mg/kg, dose level Control) was 4.4 meq/L, the LDH (0 mg/kg, dose level Control) was 152.8 IU/L and the Na (0 mg/kg, dose level Control) was 141.3 meq/L. It also gave a PL (0 mg/kg, dose level Control) of 162.4 mg/dL, an RALB (0 mg/kg, dose level Control) of 2.9 g/dL and a TBIL (0 mg/kg, dose level Control) of 0.006 mg/dL. It also gave a TC (0 mg/kg, dose level Control) of 81.8 mg/dL, a TG (0 mg/kg, dose level Control) of 144.6 mg/dL and a TP (0 mg/kg, dose level Control) of 5.7 g/dL. The gamma-GTP (0 mg/kg, dose level Control) was 1 IU/L, the TERMINAL_BW (100 mg/kg, dose level Low) was 215.1 g and the Bas (100 mg/kg, dose level Low) was 0%. For the same compound, the Eos (100 mg/kg, dose level Low) was 0.4%, the Hb (100 mg/kg, dose level Low) was 13.6 g/dL and the Ht (100 mg/kg, dose level Low) was 41.7%. It also gave a Lym (100 mg/kg, dose level Low) of 66.4%, an MCH (100 mg/kg, dose level Low) of 20.4 pg and an MCHC (100 mg/kg, dose level Low) of 32.7%. The MCV (100 mg/kg, dose level Low) was 62.4 fL, the Mono (100 mg/kg, dose level Low) was 3.8% and the Neu (100 mg/kg, dose level Low) was 27.8%. It also gave a Plat (100 mg/kg, dose level Low) of 110.9 x10_4/uL, an RBC (100 mg/kg, dose level Low) of 669.4 x10_4/ul and a Ret (100 mg/kg, dose level Low) of 7.6%. The WBC (100 mg/kg, dose level Low) was 88.5 x10_2/uL, the KIDNEY_L (100 mg/kg, dose level Low) was 1 g and the KIDNEY_R (100 mg/kg, dose level Low) was 1 g. It also gave a KIDNEY_TOTAL (100 mg/kg, dose level Low) of 2 g, an LIVER (100 mg/kg, dose level Low) of 9.2 g and an A/G (100 mg/kg, dose level Low) of 1.1. It also gave an ALP (100 mg/kg, dose level Low) of 1723.6 IU/L, an ALT (100 mg/kg, dose level Low) of 134.6 IU/L and an AST (100 mg/kg, dose level Low) of 347.6 IU/L. For the same compound, the BUN (100 mg/kg, dose level Low) was 18.8 mg/dL, the CRE (100 mg/kg, dose level Low) was 0.2 mg/dL and the Ca (100 mg/kg, dose level Low) was 10.8 mg/dL. The Cl (100 mg/kg, dose level Low) was 102 meq/L, the DBIL (100 mg/kg, dose level Low) was 0.046 mg/dL and the GLC (100 mg/kg, dose level Low) was 164.2 mg/dL. For the same compound, the IP (100 mg/kg, dose level Low) was 8 mg/dL, the K (100 mg/kg, dose level Low) was 4.3 meq/L and the LDH (100 mg/kg, dose level Low) was 883.2 IU/L. It also gave a Na (100 mg/kg, dose level Low) of 140.8 meq/L, a PL (100 mg/kg, dose level Low) of 141.4 mg/dL and an RALB (100 mg/kg, dose level Low) of 2.8 g/dL. The TBIL (100 mg/kg, dose level Low) was 0.084 mg/dL, the TC (100 mg/kg, dose level Low) was 73.4 mg/dL and the TG (100 mg/kg, dose level Low) was 34.1 mg/dL. It also gave a TP (100 mg/kg, dose level Low) of 5.4 g/dL, a gamma-GTP (100 mg/kg, dose level Low) of 0.9 IU/L and a TERMINAL_BW (300 mg/kg, dose level Middle) of 212.5 g. For the same compound, the Bas (300 mg/kg, dose level Middle) was 0%, the Eos (300 mg/kg, dose level Middle) was 0.6% and the Hb (300 mg/kg, dose level Middle) was 14.2 g/dL. The Ht (300 mg/kg, dose level Middle) was 43.1%, the Lym (300 mg/kg, dose level Middle) was 59.2% and the MCH (300 mg/kg, dose level Middle) was 20.9 pg. The MCHC (300 mg/kg, dose level Middle) was 32.9%, the MCV (300 mg/kg, dose level Middle) was 63.4 fL and the Mono (300 mg/kg, dose level Middle) was 3.2%. For the same compound, the Neu (300 mg/kg, dose level Middle) was 36.2%, the Plat (300 mg/kg, dose level Middle) was 115.8 x10_4/uL and the RBC (300 mg/kg, dose level Middle) was 680.2 x10_4/ul. For the same compound, the Ret (300 mg/kg, dose level Middle) was 7.6%, the WBC (300 mg/kg, dose level Middle) was 67.6 x10_2/uL and the KIDNEY_L (300 mg/kg, dose level Middle) was 1 g. The KIDNEY_R (300 mg/kg, dose level Middle) was 1 g, the KIDNEY_TOTAL (300 mg/kg, dose level Middle) was 1.9 g and the LIVER (300 mg/kg, dose level Middle) was 8.7 g. It also gave an A/G (300 mg/kg, dose level Middle) of 1.2, an ALP (300 mg/kg, dose level Middle) of 1483.8 IU/L and an ALT (300 mg/kg, dose level Middle) of 94.6 IU/L. It also gave an AST (300 mg/kg, dose level Middle) of 245.8 IU/L, a BUN (300 mg/kg, dose level Middle) of 15 mg/dL and a CRE (300 mg/kg, dose level Middle) of 0.2 mg/dL. It also gave a Ca (300 mg/kg, dose level Middle) of 10.7 mg/dL, a Cl (300 mg/kg, dose level Middle) of 101.9 meq/L and a DBIL (300 mg/kg, dose level Middle) of 0.038 mg/dL. For the same compound, the GLC (300 mg/kg, dose level Middle) was 172.6 mg/dL, the IP (300 mg/kg, dose level Middle) was 8.1 mg/dL and the K (300 mg/kg, dose level Middle) was 4.1 meq/L. For the same compound, the LDH (300 mg/kg, dose level Middle) was 426 IU/L, the Na (300 mg/kg, dose level Middle) was 140.4 meq/L and the PL (300 mg/kg, dose level Middle) was 115.4 mg/dL. For the same compound, the RALB (300 mg/kg, dose level Middle) was 3 g/dL, the TBIL (300 mg/kg, dose level Middle) was 0.064 mg/dL and the TC (300 mg/kg, dose level Middle) was 60.8 mg/dL. The TG (300 mg/kg, dose level Middle) was 31.5 mg/dL, the TP (300 mg/kg, dose level Middle) was 5.5 g/dL and the gamma-GTP (300 mg/kg, dose level Middle) was 1 IU/L. The TERMINAL_BW (600 mg/kg, dose level High) was 197.8 g, the Bas (600 mg/kg, dose level High) was 0% and the Eos (600 mg/kg, dose level High) was 1%. For the same compound, the Hb (600 mg/kg, dose level High) was 14.9 g/dL, the Ht (600 mg/kg, dose level High) was 44.9% and the Lym (600 mg/kg, dose level High) was 35%. The MCH (600 mg/kg, dose level High) was 20.6 pg, the MCHC (600 mg/kg, dose level High) was 33.3% and the MCV (600 mg/kg, dose level High) was 61.9 fL. The Mono (600 mg/kg, dose level High) was 2.4%, the Neu (600 mg/kg, dose level High) was 61.8% and the Plat (600 mg/kg, dose level High) was 103.6 x10_4/uL. The RBC (600 mg/kg, dose level High) was 727.4 x10_4/ul, the Ret (600 mg/kg, dose level High) was 7.5% and the WBC (600 mg/kg, dose level High) was 51.6 x10_2/uL. For the same compound, the KIDNEY_L (600 mg/kg, dose level High) was 0.9 g, the KIDNEY_R (600 mg/kg, dose level High) was 0.9 g and the KIDNEY_TOTAL (600 mg/kg, dose level High) was 1.8 g. It also gave an LIVER (600 mg/kg, dose level High) of 7.9 g, an A/G (600 mg/kg, dose level High) of 1.1 and an ALP (600 mg/kg, dose level High) of 1527.2 IU/L. For the same compound, the ALT (600 mg/kg, dose level High) was 100.4 IU/L, the AST (600 mg/kg, dose level High) was 304 IU/L and the BUN (600 mg/kg, dose level High) was 13.9 mg/dL. It also gave a CRE (600 mg/kg, dose level High) of 0.1 mg/dL, a Ca (600 mg/kg, dose level High) of 10.5 mg/dL and a Cl (600 mg/kg, dose level High) of 101.5 meq/L. For the same compound, the DBIL (600 mg/kg, dose level High) was 0.022 mg/dL, the GLC (600 mg/kg, dose level High) was 174.4 mg/dL and the IP (600 mg/kg, dose level High) was 8 mg/dL. For the same compound, the K (600 mg/kg, dose level High) was 4.2 meq/L, the LDH (600 mg/kg, dose level High) was 476.8 IU/L and the Na (600 mg/kg, dose level High) was 139.4 meq/L. It also gave a PL (600 mg/kg, dose level High) of 105 mg/dL, an RALB (600 mg/kg, dose level High) of 3.1 g/dL and a TBIL (600 mg/kg, dose level High) of 0.044 mg/dL. It also gave a TC (600 mg/kg, dose level High) of 56.2 mg/dL, a TG (600 mg/kg, dose level High) of 25.4 mg/dL and a TP (600 mg/kg, dose level High) of 5.7 g/dL. For the same compound, the gamma-GTP (600 mg/kg, dose level High) was 1.1 IU/L.
